Laboratory results from US20020137929A1, “1 - (3-heterocyclylphenyl) isothiourea, -isourea, -guanidine and -amidine herbicidal agents” (Intellectual Property Department, BASF Aktiengesellschaft, priority 1998, published 2002).

Tests used:
[1] = system: AMBEL (Ragweed, Common); assay: Postemergence herbicidal evaluation; format: in vivo, Ambrosia artemisifolia; settings: postemergence
Summary of the method: (§1)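 Seedlings grown about two weeks were sprayed at 40 psi with compound dispersed in 50/50 acetone/water plus 0.5% TWEEN 20, at about 0.0156 to 0.500 kg/ha. Plants were kept in the greenhouse and scored 4–5 weeks later on a 0–9 visual scale against untreated controls.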

[2] = system: CASOB (Sicklepod); assay: Postemergence herbicidal evaluation; format: in vivo, Cassia obtusifolia; settings: postemergence
Summary of the method: as §1

[3] = system: CHEAL (Lambsquarters, Common); assay: Postemergence herbicidal evaluation; format: in vivo, Chenopodium album; settings: postemergence
Summary of the method: as §1

[4] = system: GALAP (Galium); assay: Postemergence herbicidal evaluation; format: in vivo, Galium aparine; settings: postemergence
Summary of the method: as §1

[5] = system: ECHCG (Barnyardgrass); assay: Postemergence herbicidal evaluation; format: in vivo, Echinochloa crus-galli; settings: postemergence
Summary of the method: as §1

[6] = system: SETVI (Foxtail, Green); assay: Postemergence herbicidal evaluation; format: in vivo, Setaria viridis; settings: postemergence
Summary of the method: as §1

[7] = system: GLXMAW (Soybean, Williams); assay: Postemergence herbicidal evaluation; format: in vivo, Glycine max, (L.) Merr. cv Williams; settings: postemergence
Summary of the method: as §1

[8] = system: ORYSAT (Rice, Tebonnet); assay: Postemergence herbicidal evaluation; format: in vivo, Oryza sativa, (L.) Tebonnet; settings: postemergence
Summary of the method: as §1

[9] = system: CASOB (Sicklepod); assay: Preemergence herbicidal evaluation; format: in vivo, Cassia obtusifolia; settings: rated 4-5 weeks after treatment
Summary of the method: (§2)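 Test compound, dissolved in aqueous acetone, was sprayed over planted soil cups at an equivalent of about 0.0156 to 0.500 kg/ha; seeds had been mixed with potting soil. Greenhouse growth followed, with visual 0-9 scoring of injury at four to five weeks.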

[10] = system: GALAP (Galium); assay: Preemergence herbicidal evaluation; format: in vivo, Galium aparine; settings: rated 4-5 weeks after treatment
Summary of the method: as §2

[11] = system: ZEAMX (Corn, Field); assay: Preemergence herbicidal evaluation; format: in vivo, Zea mays; settings: rated 4-5 weeks after treatment
Summary of the method: as §2

[12] = system: CYPIR (Rice Flatsedge); assay: Preemergence weed control under flooded paddy conditions; format: in vivo, Cyperus iria; settings: rated 3-4 weeks after treatment
Summary of the method: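 First, seeds or propagules go into the top 0.5 cm of silt loam; next, water is held 1.5 to 3 cm over the soil; then compound (50/50 acetone/water) is pipetted into it at about 0.0313 to 0.500 kg/ha; finally plants are rated visually 0-9 after three to four weeks.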

[13] = system: CYPSE (Flatsedge); assay: as above; format: in vivo, Cyperus serotinus; settings: rated 3-4 weeks after treatment
Summary of the method: (§3)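 Greenhouse paddy assay. Acetone/water (50/50 v/v) solutions dosed into flood water, equivalent to about 0.0313 to 0.500 kg/ha active ingredient, over seeds planted 0.5 cm deep in silt loam. Score: 0-9 visual, based on stand, vigor, malformation, size and chlorosis, 3 to 4 weeks after treatment.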

[14] = system: SAGPY (Arrowhead (Pygmaea)); assay: as above; format: in vivo, Sagittaria pygmaea; settings: rated 3-4 weeks after treatment
Summary of the method: as §3

With COC(=O)COC(=O)CN1C(=O)CSC1=Nc1cc(-n2c(=O)cc(C(F)(F)F)n(C)c2=O)c(F)cc1Cl [Compound 108, 2-{{2-Chloro-5-[3,6-dihydro-3-methyl-2,6-dioxo-4-(trifluoromethyl)-1(2H)-pyrimidinyl]-4-fluorophenyl}imino}-4-oxo-3-thiazolidineacetic acid, ester with methyl glycolate] the “Herbicidal rating AMBEL” value ([1]; rate 0.0158 kg/ha) was 4.0, the “Herbicidal rating AMBEL” value ([1]; rate 0.0315 kg/ha) was 5.0 and the “Herbicidal rating AMBEL” value ([1]; rate 0.0630 kg/ha) was 5.0. The “Herbicidal rating CASOB” value ([2]; rate 0.0158 kg/ha) was 1.0, the “Herbicidal rating CASOB” value ([2]; rate 0.0315 kg/ha) was 1.0 and the “Herbicidal rating CASOB” value ([2]; rate 0.0630 kg/ha) was 1.0. The “Herbicidal rating CHEAL” value ([3]; rate 0.0158 kg/ha) was 4.0, the “Herbicidal rating CHEAL” value ([3]; rate 0.0315 kg/ha) was 7.0 and the “Herbicidal rating CHEAL” value ([3]; rate 0.0630 kg/ha) was 9.0. For the same compound, the “Herbicidal rating GALAP” value ([4]; rate 0.0158 kg/ha) was 1.0, the “Herbicidal rating GALAP” value ([4]; rate 0.0315 kg/ha) was 1.0 and the “Herbicidal rating GALAP” value ([4]; rate 0.0630 kg/ha) was 3.0. The “Herbicidal rating ECHCG” value ([5]; rate 0.0158 kg/ha) was 3.0, the “Herbicidal rating ECHCG” value ([5]; rate 0.0315 kg/ha) was 4.0 and the “Herbicidal rating ECHCG” value ([5]; rate 0.0630 kg/ha) was 4.0. For the same compound, the “Herbicidal rating SETVI” value ([6]; rate 0.0158 kg/ha) was 4.0, the “Herbicidal rating SETVI” value ([6]; rate 0.0315 kg/ha) was 6.0 and the “Herbicidal rating SETVI” value ([6]; rate 0.0630 kg/ha) was 7.0. The “Herbicidal rating GLXMAW” value ([7]; rate 0.0158 kg/ha) was 5.0, the “Herbicidal rating GLXMAW” value ([7]; rate 0.0315 kg/ha) was 5.5 and the “Herbicidal rating GLXMAW” value ([7]; rate 0.0630 kg/ha) was 6.0. For the same compound, the “Herbicidal rating ORYSAT” value ([8]; rate 0.0158 kg/ha) was 3.0, the “Herbicidal rating ORYSAT” value ([8]; rate 0.0315 kg/ha) was 3.0 and the “Herbicidal rating ORYSAT” value ([8]; rate 0.0630 kg/ha) was 3.5. For the same compound, the “Preemergence herbicidal rating CASOB” value ([9]; rate 0.0156 kg/ha) was 0.0, the “Preemergence herbicidal rating CASOB” value ([9]; rate 0.0313 kg/ha) was 0.0 and the “Preemergence herbicidal rating CASOB” value ([9]; rate 0.0625 kg/ha) was 0.0. For the same compound, the “Preemergence herbicidal rating CASOB” value ([9]; rate 0.1250 kg/ha) was 0.0, the “Preemergence herbicidal rating CASOB” value ([9]; rate 0.2500 kg/ha) was 9.0 and the “Preemergence herbicidal rating GALAP” value ([10]; rate 0.0156 kg/ha) was 1.0. For the same compound, the “Preemergence herbicidal rating GALAP” value ([10]; rate 0.0313 kg/ha) was 2.0, the “Preemergence herbicidal rating GALAP” value ([10]; rate 0.0625 kg/ha) was 6.0 and the “Preemergence herbicidal rating GALAP” value ([10]; rate 0.1250 kg/ha) was 7.0. The “Preemergence herbicidal rating GALAP” value ([10]; rate 0.2500 kg/ha) was 9.0, the “Preemergence herbicidal rating ZEAMX” value ([11]; rate 0.0156 kg/ha) was 0.0 and the “Preemergence herbicidal rating ZEAMX” value ([11]; rate 0.0313 kg/ha) was 0.0. The “Preemergence herbicidal rating ZEAMX” value ([11]; rate 0.0625 kg/ha) was 0.0, the “Preemergence herbicidal rating ZEAMX” value ([11]; rate 0.1250 kg/ha) was 1.0 and the “Preemergence herbicidal rating ZEAMX” value ([11]; rate 0.2500 kg/ha) was 2.0. The “CYPIR herbicidal effect rating” value ([12]; 0.0313 kg/ha) was 4.0, the “CYPIR herbicidal effect rating” value ([12]; 0.0625 kg/ha) was 6.0 and the “CYPIR herbicidal effect rating” value ([12]; 0.1250 kg/ha) was 7.0. The “CYPIR herbicidal effect rating” value ([12]; 0.2500 kg/ha) was 7.0, the “CYPSE herbicidal effect rating” value ([13]; 0.0313 kg/ha) was 0.0 and the “CYPSE herbicidal effect rating” value ([13]; 0.0625 kg/ha) was 0.0. The “CYPSE herbicidal effect rating” value ([13]; 0.1250 kg/ha) was 0.0, the “SAGPY herbicidal effect rating” value ([14]; 0.0313 kg/ha) was 0.0 and the “SAGPY herbicidal effect rating” value ([14]; 0.0625 kg/ha) was 0.0. The “SAGPY herbicidal effect rating” value ([14]; 0.1250 kg/ha) was 3.0 and the “SAGPY herbicidal effect rating” value ([14]; 0.2500 kg/ha) was 6.0.
